Among the data in patent US20260184663A1, “INDENE COMPOUNDS, PHARMACEUTICAL COMPOSITIONS THEREOF, AND THEIR THERAPEUTIC APPLICATIONS” (NucMito Pharmaceuticals co. Ltd., priority 2022, published 2026) are inhibition values, retold here.

Holding throughout (type): cell-based
For experiment [1], the system named is A549 (lung adenocarcinoma). In words: Antiproliferative activity (CCK-8 cell viability), A549. The following applies: Homo sapiens, 72 h, read-out: Antiproliferative activity in cancerous cells, A549 (inhibition of cell growth); for inhibition at 3.3 µM: Compound concentration: 3.3 μM; for inhibition at 10 µM: Compound concentration: 10 μM. The procedure, abridged: (§1)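 Cells grown in DMEM (HepG2, SW480), MEM (HeLa) or F-12K (A549), each with 10% FBS, then exposed to compound at 3.3, 10 or 30 μM for 72 h at 37 °C. CCK-8 absorbance at 450 nm; viability expressed as percent of DMSO-treated cells, graded as growth inhibition bands.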

In experiment [2] the test system is A431 (epidermoid carcinoma). In words: Antiproliferative activity (CCK-8 cell viability), A431. The following applies: Homo sapiens, 72 h, read-out: Antiproliferative activity in cancerous cells, A431 (inhibition of cell growth); for inhibition at 3.3 µM: A-431, Compound concentration: 3.3 μM; for inhibition at 10 µM: A-431, Compound concentration: 10 μM. The method, boiled down: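 A431 epidermoid carcinoma cells grown in DMEM with 10% FBS were plated at 2,000-5,000 cells/well in 96-well plates. After attachment they were exposed to compound at 3.3 μM, 10 μM, or 30 μM for 72 h at 37° C. Viability was then assessed by CCK-8 against DMSO vehicle-treated wells.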

Experiment [3] has as its system HeLa (cervical cancer). In words: Antiproliferative activity (CCK-8 cell viability), HeLa. The following applies: Homo sapiens, 72 h, read-out: Antiproliferative activity in cancerous cells, HELA (inhibition of cell growth); for inhibition at 3.3 µM: Compound concentration: 3.3 μM; for inhibition at 10 µM: Compound concentration: 10 μM. The procedure, abridged: as §1

For experiment [4], the system named is B16F10 (malignant melanoma). In words: Antiproliferative activity (CCK-8 cell viability), B16F10. To be noted: Mus musculus, 72 h, read-out: Antiproliferative activity in cancerous cells, B16F10 (inhibition of cell growth); for inhibition at 3.3 µM: B16-F10, Compound concentration: 3.3 μM; for inhibition at 10 µM: B16-F10, Compound concentration: 10 μM. The method, boiled down: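 B16F10 melanoma cells grown in DMEM with 10% FBS were plated in 96-well plates at 2,000-5,000 cells/well. After attachment they were exposed to compound in medium for 72 h at 37° C. CCK-8 solution (10 μL) was then added, and after 4 h at 37° C absorbance was read at 450 nm.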

For experiment [5], the system named is HepG2 (liver cancer). The experiment can be described thus: Antiproliferative activity (CCK-8 cell viability), HepG2. The following applies: Homo sapiens, 72 h, read-out: Antiproliferative activity in cancerous cells, HepG2 (inhibition of cell growth); for inhibition at 3.3 µM: Compound concentration: 3.3 μM; for inhibition at 10 µM: Compound concentration: 10 μM. The method, boiled down: as §1

The subject of experiment [6] is SW480 (colon cancer). The experiment can be described thus: Antiproliferative activity (CCK-8 cell viability), SW480. To be noted: Homo sapiens, 72 h, read-out: Antiproliferative activity in cancerous cells, SW480 (inhibition of cell growth); for inhibition at 3.3 µM: Compound concentration: 3.3 μM; for inhibition at 10 µM: Compound concentration: 10 μM. The method, boiled down:
as §1

For experiment [7], the system named is MDA-MB-231 (breast cancer). In words: Antiproliferative activity (CCK-8 cell viability), MDA-MB-231. To be noted: Homo sapiens, 72 h, read-out: Antiproliferative activity in cancerous cells, MDA-MB-231 (inhibition of cell growth); for inhibition at 3.3 µM: Compound concentration: 3.3 μM; for inhibition at 10 µM: Compound concentration: 10 μM. The procedure, abridged: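 MDA-MB-231 breast cancer cells, grown in DMEM with 10% FBS, were plated in 96-well plates at 2,000-5,000 cells/well. Once attached, they were exposed to compound and incubated at 37° C. for 72 h. Viability was then measured with CCK-8 (10 μL per well, 4 h at 37° C.) by absorbance at 450 nm, relative to DMSO vehicle wells.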

Usually inhibition stands for the percentage by which the read-out fell short of the control. As to `CC1=C(CC(=O)O)c2cc(F)ccc2/C1=C\c1ccc(COCc2ccc(C)cc2)cc1` [B102, (Z)-2-(5-Fluoro-2-methyl-1-(4-(((4-methylbenzyl)oxy)methyl)benzylidene)-1H-inden-3-yl)acetic acid], the inhibition at 3.3 µM is under 30% in experiment [1]; at least 50% in experiment [2]; under 30% in experiment [3]; under 30% in experiment [4]; 30 to 50% in experiment [5]; under 30% in experiment [6]. Further, the inhibition at 3.3 µM in experiment [7] fell in the range of 30 to 50%. In addition, the inhibition at 10 µM in experiment [1], in experiment [2], in experiment [3], in experiment [4], in experiment [5] and in experiment [6] was at least 50% throughout. Further, the inhibition at 10 µM in experiment [7] is at least 50%.

With `CC1=C(CC(=O)O)c2cc(F)ccc2/C1=C\c1ccc(COCc2ccc(Cl)cc2)cc1` [B103, (Z)-2-(1-(4-(((4-Chlorobenzyl)oxy)methyl)benzylidene)-5-fluoro-2-methyl-1H-inden-3-yl)acetic acid], the inhibition at 3.3 µM in experiment [1] was under 30%; in experiment [2], at least 50%; in experiment [3], under 30%; in experiment [4] it was under 30%; in experiment [5], 30 to 50%; in experiment [6], under 30%. Further, the inhibition at 3.3 µM in experiment [7] lay within 30 to 50%. Besides, the inhibition at 10 µM in experiment [1], in experiment [2], in experiment [3], in experiment [4], in experiment [5] and in experiment [6] was at least 50% in each case. Besides, the inhibition at 10 µM in experiment [7] is at least 50%.

`CC1=C(CC(=O)O)c2cc(F)ccc2/C1=C\c1ccc(COCc2ccccc2)cc1` [B104, (Z)-2-(1-(4-((Benzyloxy)methyl)benzylidene)-5-fluoro-2-methyl-1H-inden-3-yl)-acetic acid]: the inhibition at 3.3 µM in experiment [1] is 30 to 50%; in experiment [2], at least 50%; in experiment [3], at least 50%; in experiment [4] it was at least 50%; in experiment [5], under 30%; in experiment [6] it was at least 50%. Further, in experiment [7], the inhibition at 3.3 µM is 30 to 50%. Besides, the inhibition at 10 µM in experiment [1] is 30 to 50%; in experiment [2], at least 50%; in experiment [3], at least 50%; in experiment [4], at least 50%; in experiment [5], at least 50%; in experiment [6], at least 50%. For the same molecule, the inhibition at 10 µM in experiment [7] is at least 50%.

For the molecule `CC1=C(CC(=O)O)c2cc(F)ccc2/C1=C\c1ccc(COCc2ccc(F)c(F)c2)cc1` [B105, (Z)-2-(1-(4-(((3,4-Difluorobenzyl)oxy)methyl)benzylidene)-5-fluoro-2-methyl-1H-inden-3-yl)acetic acid], the inhibition at 3.3 µM was 30 to 50% in experiment [1]; 30 to 50% in experiment [2]; at least 50% in experiment [3]; 30 to 50% in experiment [4]; under 30% in experiment [5]; 30 to 50% in experiment [6]. For the same molecule, in experiment [7], the inhibition at 3.3 µM fell in the range of 30 to 50%. Further, the inhibition at 10 µM in experiment [1], in experiment [2], in experiment [3], in experiment [4], in experiment [5] and in experiment [6] was at least 50% throughout. Moreover, the inhibition at 10 µM in experiment [7] is at least 50%.

Consider `CC1=C(CC(=O)O)c2cc(F)ccc2/C1=C\c1ccc(COCc2ccc(F)c(Cl)c2)cc1` [B106, (Z)-2-(1-(4-(((3-Chloro-4-fluorobenzyl)oxy)methyl)benzylidene)-5-fluoro-2-methyl-1H-inden-3-yl)acetic acid], for which the inhibition at 3.3 µM was 30 to 50% in experiment [1]; 30 to 50% in experiment [2]; at least 50% in experiment [3]; under 30% in experiment [4]; under 30% in experiment [5]; at least 50% in experiment [6]. In experiment [7], the inhibition at 3.3 µM is at least 50%. Further, the inhibition at 10 µM in experiment [1], in experiment [2], in experiment [3], in experiment [4], in experiment [5] and in experiment [6] was at least 50% each time. For the same molecule, the inhibition at 10 µM in experiment [7] is at least 50%.

Turning to `CCc1ccc2c(c1)C(CC(=O)O)=C(C)/C2=C/c1ccc(COCc2ccc(F)cc2)cc1` [B107, (Z)-2-(5-Ethyl-1-(4-(((4-fluorobenzyl)oxy)methyl)benzylidene)-2-methyl-1H-inden-3-yl)acetic acid], the inhibition at 3.3 µM was 30 to 50% in experiment [1]; at least 50% in experiment [2]; under 30% in experiment [3]; under 30% in experiment [4]; under 30% in experiment [5]; at least 50% in experiment [6]. For the same molecule, the inhibition at 3.3 µM in experiment [7] was under 30%. Further, the inhibition at 10 µM in experiment [1] is at least 50%; in experiment [2] it was 30 to 50%; in experiment [3], at least 50%; in experiment [4] it was 30 to 50%; in experiment [5], under 30%; in experiment [6] it was at least 50%. Also, in experiment [7], the inhibition at 10 µM is 30 to 50%.

As for `COc1ccc(COCc2ccc(/C=C3/C(C)=C(CC(=O)O)c4cc(F)ccc43)cc2)cc1Cl` [B108, (Z)-2-(1-(4-(((3-Chloro-4-methoxybenzyl)oxy)methyl)benzylidene)-5-fluoro-2-methyl-1H-inden-3-yl)acetic acid], the inhibition at 3.3 µM in experiment [1] was 30 to 50%; in experiment [2] it was 30 to 50%; in experiment [3] it was 30 to 50%; in experiment [4], 30 to 50%; in experiment [5], under 30%; in experiment [6], under 30%. Further, the inhibition at 3.3 µM in experiment [7] is at least 50%. The inhibition at 10 µM in experiment [1], in experiment [2], in experiment [3], in experiment [4], in experiment [5] and in experiment [6] was at least 50% in each case. Further, the inhibition at 10 µM in experiment [7] was at least 50%.

Turning to `CC1=C(CC(=O)O)c2cc(I)ccc2/C1=C\c1ccc(COCc2ccc(F)cc2)cc1` [B109, (Z)-2-(1-(4-(((4-Fluorobenzyl)oxy)methyl)benzylidene)-5-iodo-2-methyl-1H-inden-3-yl)acetic acid], the inhibition at 3.3 µM was 30 to 50% in experiment [1]; under 30% in experiment [2]; at least 50% in experiment [3]; under 30% in experiment [4]; under 30% in experiment [5]; under 30% in experiment [6]. Moreover, the inhibition at 3.3 µM in experiment [7] was at least 50%. Further, the inhibition at 10 µM in experiment [1], in experiment [2], in experiment [3], in experiment [4], in experiment [5] and in experiment [6] was at least 50% throughout. For the same molecule, in experiment [7], the inhibition at 10 µM is at least 50%.
